From patent US20240391862A1, “(1,4,5-TRISUBSTITUTED-1H-PYRAZOL-3-YL)OXY-2-ALKOXY ALKYL ACIDS AND THEIR DERIVATIVES, THEIR SALTS AND THEIR USE AS HERBICIDAL AGENTS” (Bayer AKtiengesellschaft, priority 2021, published 2024)

Legend:
Assay in all cases: Post-emergence herbicidal effect, greenhouse pot test
LOLRI = format: in vivo, Lolium rigidum
In short: (§1)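 Greenhouse pot plants in sandy loam receive a one-leaf-stage spray at 20 to 320 g/ha. Activity is assessed visually around 3 weeks afterwards on a 0–100% scale, where 100% means the plants have died.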

ABUTH = format: in vivo, Abutilon theophrasti; conditions: visual rating about 3 weeks after treatment
In short: as §1

PHBPU = format: in vivo, Ipomoea purpurea
In short: as §1

KCHSC = format: in vivo
In short: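 Visual rating of activity against untreated plants (100% = plants died, 0% = no effect), done about 3 weeks after treatment. Compounds applied at 20–320 g/ha as aqueous spray (600 l/ha, 0.5% additive) from WP or EC formulations onto one-leaf-stage plants grown in sandy loam under greenhouse conditions.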

DIGSA = format: in vivo, Digitaria sanguinalis; conditions: visual rating about 3 weeks after treatment
In short: as §1

ALOMY = format: in vivo, Alopecurus myosuroides; conditions: visual rating about 3 weeks after treatment
In short: as §1

SETVI = format: in vivo, Setaria viridis
In short: as §1

ECHCG = format: in vivo, Echinochloa crus-galli
In short: as §1

AVEFA = format: in vivo, Avena fatua; conditions: visual rating about 3 weeks after treatment
In short: as §1

VERPE = format: in vivo, Veronica persica
In short: as §1

AMARE = format: in vivo, Amaranthus retroflexus; conditions: visual rating about 3 weeks after treatment
In short: as §1

MATIN = format: in vivo, Tripleurospermum inodorum
In short: as §1

VIOTR = format: in vivo, Viola tricolor
In short: as §1

POLCO = format: in vivo, Fallopia convolvulus
In short: as §1

[1] = Abutilon theophrasti, 504 h, 20 g/ha, read-out: Post-emergence effect against ABUTH
[2] = 504 h, read-out: Post-emergence effect against KCHSC in %
[3] = Setaria viridis, 504 h, 20 g/ha, read-out: Post-emergence effect against SETVI in %
[4] = 20 g/ha, visual rating about 3 weeks after treatment
[5] = Veronica persica, 504 h, 20 g/ha, read-out: Post-emergence effect against VERPE in %

COC(=O)C(OC)Oc1nn(-c2ncccc2F)c(-c2cncc(F)c2)c1C1CC1 (stereo not drawn) [Example I-87]
Post-emergence effect against LOLRI in % (LOLRI; 80 g/ha): 90%
Post-emergence effect against LOLRI in % (LOLRI; 320 g/ha): 90%
Post-emergence effect against ABUTH (ABUTH; 80 g/ha): 90%
Post-emergence effect against ABUTH (ABUTH; 320 g/ha): 90%
pest or weed control at 20 g/ha (ABUTH; [1]): 90%
Post-emergence effect against PHBPU in % (PHBPU; 20 g/ha): 90%
Post-emergence effect against PHBPU in % (PHBPU; 80 g/ha): 90%
Post-emergence effect against PHBPU in % (PHBPU; 320 g/ha): 90%
Post-emergence effect against KCHSC in % (KCHSC; 80 g/ha): 90%
Post-emergence effect against KCHSC in % (KCHSC; 320 g/ha): 90%
pest or weed control at 20 g/ha (KCHSC; [2]): 90%
Post-emergence effect against DIGSA (DIGSA; 320 g/ha): 90%
pest or weed control at 80 g/ha (DIGSA; Digitaria sanguinalis, 504 h, 80 g/ha, read-out: Post-emergence effect against DIGSA): 80%
Post-emergence effect against ALOMY (ALOMY; 80 g/ha): 90%
Post-emergence effect against ALOMY (ALOMY; 320 g/ha): 90%
Post-emergence effect against SETVI in % (SETVI; 80 g/ha): 90%
Post-emergence effect against SETVI in % (SETVI; 320 g/ha): 90%
pest or weed control at 20 g/ha (SETVI; [3]): 90%
Post-emergence effect against ECHCG (ECHCG; [4]): 90%
Post-emergence effect against ECHCG in % (ECHCG; 80 g/ha): 90%
Post-emergence effect against ECHCG in % (ECHCG; 320 g/ha): 90%
Post-emergence effect against AVEFA (AVEFA; 80 g/ha): 90%
Post-emergence effect against AVEFA (AVEFA; 320 g/ha): 90%
Post-emergence effect against VERPE in % (VERPE; 80 g/ha): 90%
Post-emergence effect against VERPE in % (VERPE; 320 g/ha): 90%
pest or weed control at 20 g/ha (VERPE; [5]): 80%
Post-emergence effect against AMARE (AMARE; 80 g/ha): 80%
Post-emergence effect against AMARE (AMARE; 320 g/ha): 90%
Post-emergence effect against MATIN in % (MATIN; 80 g/ha): 80%
Post-emergence effect against MATIN in % (MATIN; 320 g/ha): 80%
Post-emergence effect against VIOTR in % (VIOTR; 20 g/ha): 90%
Post-emergence effect against VIOTR in % (VIOTR; 80 g/ha): 90%
Post-emergence effect against VIOTR in % (VIOTR; 320 g/ha): 90%
Post-emergence effect against POLCO in % (POLCO; 20 g/ha): 80%
Post-emergence effect against POLCO in % (POLCO; 80 g/ha): 90%
Post-emergence effect against POLCO in % (POLCO; 320 g/ha): 90%

CCOC(=O)C(OC)Oc1nn(-c2ncccc2F)c(-c2cncc(F)c2)c1C1CC1 (stereo not drawn) [Example I-113]
pest or weed control at 80 g/ha (LOLRI; Lolium rigidum, 504 h, 80 g/ha, read-out: Post-emergence effect against LOLRI in %): 90%
pest or weed control at 320 g/ha (LOLRI; Lolium rigidum, 504 h, 320 g/ha, read-out: Post-emergence effect against LOLRI in %): 100%
pest or weed control at 20 g/ha (ABUTH; [1]): 90%
pest or weed control at 80 g/ha (ABUTH; Abutilon theophrasti, 504 h, 80 g/ha, read-out: Post-emergence effect against ABUTH): 90%
pest or weed control at 320 g/ha (ABUTH; Abutilon theophrasti, 504 h, 320 g/ha, read-out: Post-emergence effect against ABUTH): 90%
pest or weed control at 20 g/ha (PHBPU; Ipomoea purpurea, 504 h, 20 g/ha, read-out: Post-emergence effect against PHBPU in %): 90%
pest or weed control at 80 g/ha (PHBPU; Ipomoea purpurea, 504 h, 80 g/ha, read-out: Post-emergence effect against PHBPU in %): 90%
pest or weed control at 320 g/ha (PHBPU; Ipomoea purpurea, 504 h, 320 g/ha, read-out: Post-emergence effect against PHBPU in %): 100%
pest or weed control at 20 g/ha (KCHSC; [2]): 90%
pest or weed control at 80 g/ha (KCHSC; 504 h, 80 g/ha, read-out: Post-emergence effect against KCHSC in %): 90%
pest or weed control at 320 g/ha (KCHSC; 504 h, 320 g/ha, read-out: Post-emergence effect against KCHSC in %): 90%
pest or weed control at 320 g/ha (DIGSA; Digitaria sanguinalis, 504 h, 320 g/ha, read-out: Post-emergence effect against DIGSA): 90%
pest or weed control at 80 g/ha (ALOMY; Alopecurus myosuroides, 504 h, 80 g/ha, read-out: Post-emergence effect against ALOMY): 100%
pest or weed control at 320 g/ha (ALOMY; Alopecurus myosuroides, 504 h, 320 g/ha, read-out: Post-emergence effect against ALOMY): 100%
pest or weed control at 20 g/ha (SETVI; [3]): 90%
pest or weed control at 80 g/ha (SETVI; Setaria viridis, 504 h, 80 g/ha, read-out: Post-emergence effect against SETVI in %): 90%
pest or weed control at 320 g/ha (SETVI; Setaria viridis, 504 h, 320 g/ha, read-out: Post-emergence effect against SETVI in %): 90%
pest or weed control at 20 g/ha (ECHCG; Echinochloa crus-galli, 504 h, 20 g/ha, visual rating about 3 weeks after treatment, read-out: Post-emergence effect against ECHCG): 90%
pest or weed control at 80 g/ha (ECHCG; Echinochloa crus-galli, 504 h, 80 g/ha, read-out: Post-emergence effect against ECHCG in %): 90%
pest or weed control at 320 g/ha (ECHCG; Echinochloa crus-galli, 504 h, 320 g/ha, read-out: Post-emergence effect against ECHCG in %): 90%
pest or weed control at 20 g/ha (AVEFA; Avena fatua, 504 h, 20 g/ha, read-out: Post-emergence effect against AVEFA): 80%
pest or weed control at 80 g/ha (AVEFA; Avena fatua, 504 h, 80 g/ha, read-out: Post-emergence effect against AVEFA): 100%
pest or weed control at 320 g/ha (AVEFA; Avena fatua, 504 h, 320 g/ha, read-out: Post-emergence effect against AVEFA): 100%
pest or weed control at 20 g/ha (VERPE; [5]): 80%
pest or weed control at 80 g/ha (VERPE; Veronica persica, 504 h, 80 g/ha, read-out: Post-emergence effect against VERPE in %): 90%
pest or weed control at 320 g/ha (VERPE; Veronica persica, 504 h, 320 g/ha, read-out: Post-emergence effect against VERPE in %): 90%
pest or weed control at 20 g/ha (AMARE; Amaranthus retroflexus, 504 h, 20 g/ha, read-out: Post-emergence effect against AMARE): 80%
pest or weed control at 80 g/ha (AMARE; Amaranthus retroflexus, 504 h, 80 g/ha, read-out: Post-emergence effect against AMARE): 80%
pest or weed control at 320 g/ha (AMARE; Amaranthus retroflexus, 504 h, 320 g/ha, read-out: Post-emergence effect against AMARE): 80%
pest or weed control at 80 g/ha (MATIN; Tripleurospermum inodorum, 504 h, 80 g/ha, read-out: Post-emergence effect against MATIN in %): 80%
pest or weed control at 320 g/ha (MATIN; Tripleurospermum inodorum, 504 h, 320 g/ha, read-out: Post-emergence effect against MATIN in %): 80%
pest or weed control at 20 g/ha (VIOTR; Viola tricolor, 504 h, 20 g/ha, read-out: Post-emergence effect against VIOTR in %): 90%
pest or weed control at 80 g/ha (VIOTR; Viola tricolor, 504 h, 80 g/ha, read-out: Post-emergence effect against VIOTR in %): 90%
pest or weed control at 320 g/ha (VIOTR; Viola tricolor, 504 h, 320 g/ha, read-out: Post-emergence effect against VIOTR in %): 90%
pest or weed control at 80 g/ha (POLCO; Fallopia convolvulus, 504 h, 80 g/ha, read-out: Post-emergence effect against POLCO in %): 80%
pest or weed control at 320 g/ha (POLCO; Fallopia convolvulus, 504 h, 320 g/ha, read-out: Post-emergence effect against POLCO in %): 80%

COC(=O)CCOC(=O)C(OC)Oc1nn(-c2cc(F)ccc2F)c(-c2cncc(F)c2)c1C1CC1 (stereo not drawn) [Example I-83]
Post-emergence effect against LOLRI in % (LOLRI; 320 g/ha): 90%
Post-emergence effect against ABUTH (ABUTH; 20 g/ha): 80%
Post-emergence effect against ABUTH (ABUTH; 80 g/ha): 90%
Post-emergence effect against ABUTH (ABUTH; 320 g/ha): 90%
Post-emergence effect against PHBPU in % (PHBPU; 20 g/ha): 90%
Post-emergence effect against PHBPU in % (PHBPU; 80 g/ha): 90%
Post-emergence effect against PHBPU in % (PHBPU; 320 g/ha): 90%
Post-emergence effect against KCHSC in % (KCHSC; 320 g/ha): 80%
Post-emergence effect against DIGSA (DIGSA; 320 g/ha): 90%
Post-emergence effect against ALOMY (ALOMY; 80 g/ha): 90%
Post-emergence effect against ALOMY (ALOMY; 320 g/ha): 90%
Post-emergence effect against SETVI in % (SETVI; 20 g/ha): 90%
Post-emergence effect against SETVI in % (SETVI; 80 g/ha): 90%
Post-emergence effect against SETVI in % (SETVI; 320 g/ha): 90%
Post-emergence effect against ECHCG (ECHCG; [4]): 90%
Post-emergence effect against ECHCG in % (ECHCG; 80 g/ha): 90%
Post-emergence effect against ECHCG in % (ECHCG; 320 g/ha): 90%
Post-emergence effect against AVEFA (AVEFA; 80 g/ha): 90%
Post-emergence effect against AVEFA (AVEFA; 320 g/ha): 90%
Post-emergence effect against VERPE in % (VERPE; 20 g/ha): 90%
Post-emergence effect against VERPE in % (VERPE; 80 g/ha): 90%
Post-emergence effect against VERPE in % (VERPE; 320 g/ha): 90%
Post-emergence effect against AMARE (AMARE; 20 g/ha): 90%
Post-emergence effect against AMARE (AMARE; 80 g/ha): 90%
Post-emergence effect against AMARE (AMARE; 320 g/ha): 90%
Post-emergence effect against MATIN in % (MATIN; 20 g/ha): 80%
Post-emergence effect against MATIN in % (MATIN; 80 g/ha): 90%
Post-emergence effect against MATIN in % (MATIN; 320 g/ha): 90%
Post-emergence effect against VIOTR in % (VIOTR; 20 g/ha): 90%
Post-emergence effect against VIOTR in % (VIOTR; 80 g/ha): 90%
Post-emergence effect against VIOTR in % (VIOTR; 320 g/ha): 90%
Post-emergence effect against POLCO in % (POLCO; 80 g/ha): 80%
Post-emergence effect against POLCO in % (POLCO; 320 g/ha): 90%
